Assay results from ChEMBL document CHEMBL1154328, “New inhibitors of the complement system inspired in K76-COOH. A SAR study of filifolinol derivatives through modifications of the C3' position” (Bioorg Med Chem Lett, 2009).

Assay: Inhibition of serum complement system-mediated hemolysis of human RBCs; call rule not given here

Structure (SMILES) | IC50 | IC50 (read-out: IC50) [mM]
C[C@H]1CCCC(C)(C)[C@@]12Cc1cc(C(=O)O)ccc1O2 | Not Active | –
CCCN[C@H]1CC[C@H](C)[C@]2(Cc3cc(C(=O)O)ccc3O2)C1(C)C | – | 2.75
C[C@@H]1CCC2C(C)(C)[C@H](O)[C@H](O)C[C@]2(C)[C@@]12Cc1c(O)cc(C(=O)O)c(C=O)c1O2 (stereo partly specified) | – | 0.57
COc1ccc(C(=O)O)c2c1C[C@@](C)([C@H]1CC=C(C)CC1)O2 | – | 0.68
C[C@H]1CC[C@@H](O)C(C)(C)[C@@]12Cc1cc(C(=O)O)ccc1O2 | – | 0.517
C=CCO[C@@H]1CC[C@H](C)[C@]2(Cc3cc(C(=O)O)ccc3O2)C1(C)C | – | 3.07
C[C@H]1CC[C@@H](OCC(O)CO)C(C)(C)[C@@]12Cc1cc(C(=O)O)ccc1O2 (stereo partly specified) | – | 4.72
C[C@H]1CC[C@H](O)C(C)(C)[C@@]12Cc1cc(C(=O)O)ccc1O2 | – | 12.1
C[C@H]1CC[C@@H](OCCO)C(C)(C)[C@@]12Cc1cc(C(=O)O)ccc1O2 | – | 4.4
CCCO[C@@H]1CC[C@H](C)[C@]2(Cc3cc(C(=O)O)ccc3O2)C1(C)C | – | 0.548
COc1ccc(C(=O)O)c2c1C[C@@](C)([C@@H]1CC[C@](C)(O)[C@H](O)C1)O2 | – | 1.6
CC1=CC[C@H]([C@]2(C)Cc3c(O)ccc(C(=O)O)c3O2)CC1 | – | 2.15
C[C@H]1CC[C@@](O)(CC(O)CO)C(C)(C)[C@@]12Cc1cc(C(=O)O)ccc1O2 (stereo partly specified) [listing 1 of 2 here] | – | 0.48
CCCN[C@@H]1CC[C@H](C)[C@]2(Cc3cc(C(=O)O)ccc3O2)C1(C)C | – | 0.211
C[C@H]1CC[C@@](O)(CC(O)CO)C(C)(C)[C@@]12Cc1cc(C(=O)O)ccc1O2 (stereo partly specified) [listing 2 of 2 here] | – | 3.29
COC(=O)c1ccc2c(c1)C[C@@]1(O2)[C@@H](C)CC[C@@H](O)C1(C)C [FILIFOLINOL] | – | 2
